Test [1] concerns CRL-2813. The experiment in a line: Cell growth assay (sulforhodamine B), CRL-2813 cells. The settings on record: Homo sapiens, CRL2813, 120 h, 5 days, SRB. The class given is cell-based, human. How it is done:
(§1) Adherent mouse (KLN) and human solid tumor cells (CRL-2351, and CRL-2813) were plated in 96-well plates and maintained for 5 days in the presence of 0.54 to 6 μM of individual compound, and cell proliferation was measured by the sulforhodamine B (SRB) assay as described in ref. 11: briefly, cells were fixed in 10% cold trichloroacetic acid at 4° C. for 1 h, extensively washed with double-distilled H2O and air-dried. Plates were then incubated with 0.4% SRB in 1% acetic acid for 1 h, washed with 1% acetic acid to remove the unbound dye, and air-dried. The bound dye was solubilized by addition of 10 mM Tris (pH 10), and the absorbance was determined in a Titertek Multiscan plate reader at 490 nm. The data calculations were carried out as described (the values for mean±SD of data from replicate wells are calculated): data are expressed in terms of % T/C [(OD of treated cells/OD of control cells)×100], as a measure of cell viability and survival in the presence of test materials. Calculations are also made for the concentration of test agents giving a T/C value of 50%, or 50% growth inhibition (IC50). With the SRB assay, a measure is made of the cell population density at time 0 (the time at which drugs are added) from two extra reference plates of inoculated cells fixed with TCA just prior to drug addition to the test plates. Thus, we have three measurements: control optical density (C), test optical density (T), and optical density at time zero (T0). The calculation is 100×[(T−T0)/(C−T0)]. If T is less than T0, cell killing has occurred and can be calculated from 100×[(T−T0)/T0]. Thus, for each drug-cell line combination, a dose-response curve is generated and three levels of effect are calculated.

Test [2] deals with KLN. In words: Cell growth assay (sulforhodamine B), KLN cells. The class given is cell-based, mouse. The settings on record: Mus musculus, 120 h, 5 days, SRB. The procedure: as §1, with “Adherent mouse (KLN) and human solid tumor cells (CRL-2351, and CRL-2813) were plated in 96-well plates and maintained for 5 days in the presence of 0.54 to 6 μM of individual compound, and cell proliferation was measured by the sulforhodamine B (SRB) assay as described in ref. 11: briefly, cells were fixed in 10% cold trichloroacetic acid at 4° C. for 1 h, extensively washed with double-distilled H2O and air-dried.” left out

The subject of test [3] is eIF2•GTP•Met-tRNAi ternary complex. The experiment in a line: Ternary complex assay (ATF-4 assay), dual luciferase firefly/renilla ratio. The class given is cell-based, mouse. As to conditions: Mus musculus; for maximal fold induction at 40 µM: read-out: ATF-4 Xmax @ 40 μM. The source says: For assay development, a bi-directional plasmid was designed in which a common promoter/enhancer complex drives the transcription of firefly luciferase (F-luc) ORF fused to the 5′ untranslated region (UTR) of ATF-4, and of the renilla luciferase (R-luc) ORF fused to a 90-nucleotide 5′ UTR derived from the plasmid (FIG. 6A). Because the tetracycline-regulated transactivator ((tTA), required for driving transcription from this vector) is not normally expressed in the mammalian cells, stable KLN cancer cells were constructed that expressed tTA (KLN-tTA).
The KLN-tTA colonies that drove expression of reporter genes from pBISA-DL plasmid were selected by transient transfection and dual luciferase assay. One of these KLN-tTA cell lines was transfected with the pBISA-DL^(ATF-4) expression vector, stable colonies were selected by dual luciferase assay and expanded.
Plasmids and Ternary Complex Assay
(ATF-4 Assay). Briefly, bi-directional mammalian expression vector pBI (Clontech, CA) was modified to expand the multiple cloning sites (MCSs) and designated thereafter as pBISA. This vector contains seven copies of the tetracycline-regulated transactivator response element (TRE), which together act as core promoter/enhancer. The TRE is flanked on both sides by minimal human cytomegalovirus (CMV) minimal promoters allowing bi-directional transcription and two MCSs. Firefly and renilla luciferases were subcloned into MCS-I and MCS-II, respectively. This plasmid, designated pBISA-DL, transcribes two mRNAs that contain the 90 nucleotide plasmid derived 5′UTR (same sequence in both mRNAs), and the ORF encoding either firefly or renilla luciferase followed by a polyadenylation sequence as described in Ziegeler, G.; Ming, J.; Koseki, J. C.; Sevinc, S.; Chen, T.; Ergun, S.; Qin, X.; Aktas, B. H. J. Biol. Chem. 2010, 285, 15408 hereby incorporated by reference. This plasmid was further modified by inserting the 5′UTR of ATF-4 into MCS-I in front of the firefly luciferase mRNA. Transcription from this direction generates an mRNA that contains the firefly luciferase ORF preceded by a 5′UTR composed of 90 nucleotides derived from the plasmid and 267 nucleotides derived from the 5′UTR of ATF-4 mRNA. Transcription from the other direction generates an mRNA that contains the renilla luciferase ORF proceeded only by the 90-nucleotide plasmid-derived sequence in the 5′UTR. This expression plasmid is called pBISA-DL(ATF-4). In the dual luciferase assay, cells expressing firefly and renilla luciferases were lysed and the extracts assayed with a Dual-Glo Luciferase assay kit, per manufacturer's instruction (Promega Inc., Madison, Wis.). The data calculations were carried out as the ratio of firefly to renilla luciferase signal as described in Chen, T.; Ozel, D.; Qiao, Y.; Harbinski, F.; Chen, L.; Denoyelle, S.; He, X.; Zvereva, N.; Supko, J. G.; Chorev, M.; Halperin, J. A.; Aktas, B. H. Nat. Chem. Biol. 2011, 7, 610 hereby incorporated by reference.

The subject of test [4] is CRL-2351. In words: Cell growth assay (sulforhodamine B), CRL-2351 cells. It is filed as cell-based, human. The settings on record: Homo sapiens, 120 h, 5 days, SRB. How it is done: as §1

We go through 14 compounds from US20160106711A1, “3-3-Di-Substituted-Oxindoles as Inhibitors of Translation Initiation” (President and Fellows of Harvard College, priority 2012, published 2016).

Structures are written as SMILES.

On to `CC(=O)OCCOc1ccc(C(C)(C)C)cc1C1(c2cc(C(C)(C)C)ccc2OCCOC(C)=O)C(=O)Nc2ccccc21` [HY184], for which the IC50 (as a rule, the midpoint of a concentration-inhibition curve) in test [1] was 2 µM; in test [2], above 20 µM; in test [4], 2 µM. Moreover, in test [3] (read-out: ATF-4 Xmax), the maximal fold induction at 80 µM was 2.07 ± 1.6.

Regarding `CC(C)(C)c1ccc(O)c(C2(c3ccc(O)cc3)C(=O)Nc3ccccc32)c1` (centres unmarked) [Sd096], the results for the half-maximal inhibitory concentration (IC50) in test [1], in test [2] and in test [4] were 4 ± 0.28 µM, 17.3 ± 1.8 µM and 2 µM, respectively. Further, the maximal fold induction at 40 µM in test [3] was found to be 1.69 ± 0.6.

For `CC(C)c1ccc(O)c(C2(c3cc(C(C)C)ccc3O)C(=O)Nc3ccccc32)c1` [HY050, 3,3-Bis(2-Hydroxy-5-Isopropylphenyl)Indolin-2-One], the figures for the half-inhibitory concentration (IC50) in test [1], in test [2] and in test [4] were 2.9 ± 0.3 µM, 15.2 ± 2 µM and 2.6 ± 0.5 µM, respectively. For the same compound, in test [3] (read-out: ATF-4 Xmax), the maximal fold induction at 20 µM turned out to be 3.34 ± 0.07.

Take `CCN(C)CCOc1ccc(C(C)(C)C)cc1C1(c2cc(C(C)(C)C)ccc2O)C(=O)Nc2ccccc21` (centres unmarked) [HY301]: the IC50 in test [1] came out at 1.5 ± 0.7 µM; in test [2], 4.6 ± 1.2 µM; in test [4], 0.9 ± 0.2 µM. The maximal fold induction at 20 µM in test [3] (read-out: ATF-4 Xmax) turned out to be 15.1 ± 1.04.

In the case of `CC(C)(C)c1ccc(OCCN2CCNCC2)c(C2(c3cc(C(C)(C)C)ccc3OCCN3CCNCC3)C(=O)Nc3ccccc32)c1` [HY401], the 50% inhibitory concentration (IC50) in test [1] was 1.5 ± 0.9 µM; in test [2] it was 10.6 ± 0.9 µM; in test [4], 0.8 ± 0.1 µM. Moreover, the maximal fold induction at 40 µM in test [3] is 11.4 ± 0.65.

For `COc1ccc(C2(c3cc(C(C)(C)C)ccc3O)C(=O)Nc3c2ccc(F)c3F)cc1` (centres unmarked) [Sd140], the IC50 in test [1] is 3 µM; in test [2], 12.3 ± 2 µM; in test [4] it was 0.95 ± 0.08 µM. In addition, the maximal fold induction at 40 µM in test [3] is 1.2 ± 0.46.

Regarding `CN(C)CCOc1ccc(C(C)(C)C)cc1C1(c2ccccc2)C(=O)Nc2ccccc21` (centres unmarked) [Sd028, 3-(5-tert-Butyl-2-(2-(dimethylamino)ethoxy)phenyl)-3-phenylindolin-2-one], the concentration for half-maximal inhibition (IC50) in test [1] is 2.4 ± 0.4 µM; in test [2], 1.2 ± 0.3 µM; in test [4], 1.4 ± 0.3 µM. Further, the maximal fold induction at 10 µM in test [3] (10 uM, read-out: ATF-4 Xmax) turned out to be 2.69 ± 0.36.

`CC(C)Oc1ccc(O)c(C2(c3ccccc3)C(=O)Nc3ccccc32)c1` (centres unmarked) [HY032, 3-(2-Hydroxy-5-Isopropoxyphenyl)-3-Phenylindolin-2-One]: the values for the IC50 in test [1], in test [2] and in test [4] were 10.5 ± 1.9 µM, 16.1 ± 2.2 µM and 4.8 ± 1.6 µM, respectively. Moreover, the maximal fold induction at 40 µM in test [3] turned out to be 4.65 ± 0.58.

`CN(C)c1ccc(C2(c3cc(C(C)(C)C)ccc3O)C(=O)Nc3ccccc32)cc1` (centres unmarked) [Sd153]: the IC50 in test [1] was found to be 11 µM; in test [2], 10.9 ± 1.3 µM; in test [4], 2.3 ± 0.3 µM. Further, in test [3], the maximal fold induction at 40 µM came to 3.55.

Turning to `CCCCc1ccc(O)c(C2(c3ccccc3)C(=O)Nc3ccccc32)c1` (centres unmarked) [Compound 1287, reference compound], the IC50 in test [1] was 2.8 ± 0.3 µM; in test [2], above 20 µM; in test [4], 3.5 ± 0.1 µM.

For the compound `CC(C)(C)c1ccc(O)c(C2(c3ccccc3)C(=O)Nc3ccc(-c4ccc(N5CCOCC5)nc4)cc32)c1` (centres unmarked) [Sd231], the IC50 was 2.5 ± 1.5 µM in test [1], 13.3 ± 2.4 µM in test [2] and 1.8 ± 0.4 µM in test [4]. Further, in test [3] (read-out: ATF-4 Xmax), the maximal fold induction at 80 µM worked out at 15.6 ± 0.4.

With `CC(C)(C)c1ccc(OCCOC2OC(CO)C(O)C(O)C2O)c(C2(c3cc(C(C)(C)C)ccc3OCCOC3OC(CO)C(O)C(O)C3O)C(=O)Nc3ccccc32)c1` (centres unmarked) [HY190], the half-maximal inhibitory concentration (IC50) in test [1], in test [2] and in test [4] was above 20 µM each time.

Take `CC(C)Oc1ccc(O)c(C2(c3cc(OC(C)C)ccc3O)C(=O)Nc3ccccc32)c1` [HY037, 3,3-Bis(2-Hydroxy-5-Isopropoxyphenyl)Indolin-2-One]: the IC50 in test [1] was 5.6 ± 0.8 µM; in test [2], above 20 µM; in test [4] it was 3.6 ± 0.6 µM. In addition, the maximal fold induction at 80 µM in test [3] (read-out: ATF-4 Xmax) stood at 2.79 ± 0.9.

Take `CC(C)(C)c1ccc(OCCN2CCOCC2)c(C2(c3cc(C(C)(C)C)ccc3OCCN3CCOCC3)C(=O)Nc3ccccc32)c1` [SD167]: the IC50 in test [1] is 2.4 ± 0.1 µM; in test [2], above 20 µM; in test [4], 1.68 ± 1.26 µM.
